From patent US20020028807A1, “Non-nucleoside reverse transcriptase inhibitors” (priority 2000, published 2002)

Experiments:
HIV-1 RT Y188L = target: T1, HIV-1 RT Y188L (Human immunodeficiency virus type 1 group M subtype B, UniProt P03366, Y787L); assay: Reverse transcriptase (RT) assay, Y188L mutant; format: biochemical
T1 construct: an HIV RT clone pKRT2 containing only the RT p66 gene regulated by the lac operon/trc promoter; made in house; host or cells: E. coli JM109, vector pKK233-2
Description: (§1) Among the enzymes for which Human Immunodeficiency Virus (HIV-1) encodes is a reverse transcriptase (1), so-named because it transcribes a DNA copy from an RNA template. This activity can be quantitatively measured in a cell-free enzyme assay and is based upon the observation that reverse transcriptase is able to use a synthetic template poly r(C) primed with a biotinylated oligo d(G) to transcribe a radio-labelled DNA strand utilising 3H-dGTP as a substrate. The assay described below utilises the wild-type enzyme (which is the predominant form of the enzyme observed in patients infected with HIV-1) and can also be used with mutant RT enzymes (for example, Y181C, prepared by site-directed mutagenesis in which the tyrosine residue at codon 181 has been replaced by a cysteine residue) in analogous assay conditions. This assay allows compounds to be evaluated for their effectiveness at inhibiting the mutant enzymes.
(§2) Some HIV-1 IIIB clone BH10 RT mutants were provided by Dr. C.-K. Shih (Boehringer Ingelheim Pharmaceutials Inc., U.S.A.) in the vector pKK233-2 (Pharmacia). Briefly an HIV RT clone pKRT2 containing only the RT p66 gene regulated by the lac operon/trc promoter was obtained from Dr. W. Summers (Yale University) (2). A variety of specific amino acid substitutions were introduced into the wild-type RT gene by site-directed mutagenesis. RT clones were subcloned into the pKK233-2 bacterial expression vector. Clones provided included wild-type, Val106Ala, Tyr181Cys, Tyr188Cys, Tyr188Leu, Gly190Ala and Pro236Leu. Others were made in-house by site-directed mutagenesis of the pKK233-2 RT clones including Lys103Asn, Lys103Asn/Tyr181Cys, Lys103Asn/Leu100Ile, Lys103Asn/Pro225His, and Lys103Asn/Val108Ile.
(§3) Purification of recombinant reverse transcriptase was performed using a combination of methods previously described (3). A single colony from a fresh plate of transformed JM109 cells was used to initiate growth of a pre-culture grown o/n at 37° C. Two liters of growth medium were inoculated with this pre-culture. At OD600˜1.5 (5-6 h at 37° C.), RT gene expression was induced with IPTG (1 mM final), and the fermentation was continued for a few more hours at 37° C. After centrifugation, supernatants were discarded while cell pellets were pooled and stored at −80° C. until purification. Cells were thawed at 4° C. overnight and suspended in lysis buffer (MES 50 mM pH 6, EDTA 1 mM, 10% v/v glyerol, 0.02% w/v OBG, 0.02% w/v sodium azide). Lysozyme was added and the mixture was incubated on ice for 40 minutes. After homogenization using a bounce in presence of lysozyme and sonication, the cells were centrifuged for 30 minutes. Supernatant (S1) was saved and stored at 4° C. The centrifuged pellet was resuspended in extraction buffer (MES 50 mM pH 6, KPO4 50 mM pH 6, KCl 100 mM, 10% v/v glycerol, 0.02% w/v OBG, 0.02% w/v sodium axide) and stirred for 30 minutes at 4° C. This second mixture was centrifuged again and the supernatant (S2) was saved. The above procedure was repeated 2 more times saving supernatants S3 and S4 and one last extraction was performed overnight (S5). Polymin P (0.005% final) was added to the combined supernatants to remove nucleic acids. This solution was stirred for 75 minutes at 4° C. and centrifuged for 1 h. The supernatant (SS1) was precipitated on ice with 20% w/v ammonium sulfate and stirred for 1 h at 4° C. The mixture was then centrifuged and the resulting supernatant (SS2) was precipitated with additional 40% w/v ammonium sulfate (60% total), stirred for 1 h and centrifuged again. The final pellet (P1) was stored overnight at 4° C. before undergoing purification the following day. All steps of the purification were performed at 4° C. unless otherwise stated.
(§4) Pellet (P1) was resuspended into MES 50 mM pH 6, KPO4 10 mM pH 6, KCl 100 mM, 10% v/v glycerol, 0.02% w/v OBG, 0.02% w/v sodium azide. The suspension was dialysis against the same buffer overnight using 12-14 kD MWCO dialysis tubing. […]

HIV-1 RT V106A = target: T2, HIV-1 RT V106A (Human immunodeficiency virus type 1 group M subtype B, UniProt P03366, V705A); assay: Reverse transcriptase (RT) assay, V106A mutant; format: biochemical
T2 construct: an HIV RT clone pKRT2 containing only the RT p66 gene regulated by the lac operon/trc promoter; made in house; host or cells: E. coli JM109, vector pKK233-2
Description: as §1, §2, §3, §4

HIV-1 RT wild-type (WT) = target: T3, HIV-1 RT wild-type (WT) (Human immunodeficiency virus type 1 group M subtype B, UniProt P03366); assay: Reverse transcriptase (RT) assay, wild-type enzyme; format: biochemical
T3 construct: an HIV RT clone pKRT2 containing only the RT p66 gene regulated by the lac operon/trc promoter; made in house; host or cells: E. coli JM109, vector pKK233-2
Description: as §1, §2, §3, §4

HIV-1 RT K103N = target: T4, HIV-1 RT K103N (Human immunodeficiency virus type 1 group M subtype B, UniProt P03366, K702N); assay: Reverse transcriptase (RT) assay, K103N mutant; format: biochemical
T4 construct: an HIV RT clone pKRT2 containing only the RT p66 gene regulated by the lac operon/trc promoter; made in house; host or cells: E. coli JM109, vector pKK233-2
Description: as §1, §2, §3, §4

HIV-1 RT K103N/L100I = target: T5, HIV-1 RT K103N/L100I (Human immunodeficiency virus type 1 group M subtype B, UniProt P03366, K702N/L699I); assay: Reverse transcriptase (RT) assay, K103N/L100I mutant; format: biochemical
T5 construct: an HIV RT clone pKRT2 containing only the RT p66 gene regulated by the lac operon/trc promoter; made in house; host or cells: E. coli JM109, vector pKK233-2
Description: as §1, §2, §3, §4

HIV-1 RT K103N/V108I = target: T6, HIV-1 RT K103N/V108I (Human immunodeficiency virus type 1 group M subtype B, UniProt P03366, K702N/V707I); assay: Reverse transcriptase (RT) assay, K103N/V108I mutant; format: biochemical
T6 construct: an HIV RT clone pKRT2 containing only the RT p66 gene regulated by the lac operon/trc promoter; made in house; host or cells: E. coli JM109, vector pKK233-2
Description: as §1, §2, §3, §4

HIV-1 RT K103N/Y181C = target: T7, HIV-1 RT K103N/Y181C (Human immunodeficiency virus type 1 group M subtype B, UniProt P03366, K702N/Y780C); assay: Reverse transcriptase (RT) assay, K103N/Y181C mutant; format: biochemical
T7 construct: an HIV RT clone pKRT2 containing only the RT p66 gene regulated by the lac operon/trc promoter; made in house; host or cells: E. coli JM109, vector pKK233-2
Description: as §1, §2, §3, §4

HIV-1 RT Y181C = target: T8, HIV-1 RT Y181C (Human immunodeficiency virus type 1 group M subtype B, UniProt P03366, Y780C); assay: Reverse transcriptase (RT) assay, Y181C mutant; format: biochemical
T8 construct: an HIV RT clone pKRT2 containing only the RT p66 gene regulated by the lac operon/trc promoter; made in house; host or cells: E. coli JM109, vector pKK233-2
Description: as §1, §2, §3, §4

[1] = system: HIV coding for wild-type reverse transcriptase (WT RT); assay: ELISA (p24) assay of HIV replication in C8166 cell culture, wild-type RT virus; format: cell-based, HIV-1; conditions: Human immunodeficiency virus 1, C8166, 72 h, read-out: EC50 WT RT
Procedure: Compounds of the invention were tested for their ability to inhibit HIV replication in cell culture in a 96-well plate assay. Complete RPMI 1640, consisting of RPMI 1640+10% fetal bovine serum, 10 μg/ml gentamycin and 10 μM β-mercaptoethanol was used for dilution of the compound as well as cell growth medium. The T lymphocyte cell line C8166 was infected at a multiplicity of infection of 0.001 with viruses coding for wild-type and mutant reverse transcriptase. Cells were then incubated for three days in the presence of serial dilutions of the compounds of the invention. The supernatant was pooled from eight replica wells and the concentration of extracellular p24 was determined using a commercially available HIV-1 p24 antigen assay kit (Beckman-Coulter®). The level of inhibition (% inhibition) was calculated with the following equation: [formula]

HIV-1 RT K103N/P225H = target: T9, HIV-1 RT K103N/P225H (Human immunodeficiency virus type 1 group M subtype B, UniProt P03366, K702N/P824H); assay: Reverse transcriptase (RT) assay, K103N/P225H mutant; format: biochemical
T9 construct: an HIV RT clone pKRT2 containing only the RT p66 gene regulated by the lac operon/trc promoter; made in house; host or cells: E. coli JM109, vector pKK233-2
Description: as §1, §2, §3, §4

Row | Structure (SMILES) | IC50 (HIV-1 RT Y188L) | IC50 (HIV-1 RT V106A) | IC50 (HIV-1 RT wild-type (WT)) | IC50 (HIV-1 RT K103N) | IC50 (HIV-1 RT K103N/L100I) | IC50 (HIV-1 RT K103N/V108I) | IC50 (HIV-1 RT K103N/Y181C) | IC50 (HIV-1 RT Y181C) | EC50 [1] | IC50 (HIV-1 RT K103N/P225H)
1 | CN1C(=O)c2cc(CCOc3cc[n+]([O-])c4ccccc34)cnc2N(C2CC2)c2nc(Cl)ccc21 [compound 10, 2-Chloro-11-cyclopropyl-5,11-dihydro-5-methyl-8-{2-{(1-oxido-4-quinolinyl)oxy}ethyl}-6H-dipyrido[3,2-b:2′,3′-e][1,4]diazepin-6-one] | 1420 nM | 1370 nM | 41 nM | 67 nM | 229 nM | 255 nM | 710 nM | 206 nM |  | 
2 | CCN1c2nc(Cl)ccc2NC(=O)c2cc(CCOc3cc[n+]([O-])c4ccccc34)cnc21 [compound 22, 2-Chloro-5,11-dihydro-11-ethyl-8-{2-{(1-oxido-4-quinolinyl)-oxy}ethyl}-6H-dipyrido[3,2-b:2′,3′-e][1,4]diazepin-6-one] | 2990 nM | 2490 nM | 45 nM |  |  |  | 336 nM |  |  | 
3 | Cc1cc(F)nc2c1NC(=O)c1cc(CCOc3ccnc4ccccc34)cnc1N2C1CC1 [compound 5, 11-(Cyclopropyl)-5,11-dihydro-2-fluoro-4-methyl-8-{2-(4-quinolinyloxy)-ethyl}-6H-dipyrido[3,2-b:2′,3′-e][1,4]diazepin-6-one] | 2540 nM | 61 nM | 19 nM | 37.5 nM | 98 nM | 38 nM | 536 nM | 76 nM | 0.83 nM | 38 nM
4 | CCN1C(=O)c2cc(CCOc3cc[n+]([O-])c4ccccc34)cnc2N(CC)c2ncccc21 [compound 27, 5,11-Dihydro-5,11-diethyl-8-{2-{(1-oxido-4-quinolinyl)oxy}ethyl}-6H-dipyrido[3,2-b:2′,3′-e][1,4]diazepin-6-one] | 5340 nM | 2270 nM | 38 nM |  |  |  | 299 nM |  |  | 
5 | CCN1c2ncc(CCOc3ccnc4ccccc34)cc2C(=O)Nc2c(C)cc(F)nc21 [compound 7, 5,11-Dihydro-11-ethyl-2-fluoro-4-methyl-8-{2-(4-quinolinyloxy)ethyl}-6H-dipyrido[3,2-b:2′,3′-e][1,4]diazepin-6-one] | 4320 nM | 74 nM | 9.8 nM | 26 nM | 98 nM | 45 nM | 199 nM | 38 nM | 1.1 nM | 46 nM
6 | CCN1c2ncc(CCOc3cccc4ncccc34)cc2C(=O)Nc2c(C)cc(Cl)nc21 [compound 25, 2-Chloro-5,11-dihydro-11-ethyl-4-methyl-8-{2-(5-quinolinyloxy)ethyl}-6H-dipyrido[3,2-b:2′,3′-e][1,4]diazepin-6-one] | 2540 nM | 84 nM | 8 nM | 19 nM | 28 nM | 38 nM | 64 nM | 17 nM | 2.2 nM | 23 nM
7 | CCN1c2ncc(CCOc3cccc4c3ccc[n+]4[O-])cc2C(=O)Nc2c(C)cc(F)nc21 [compound 23, 5,11-Dihydro-11-ethyl-2-fluoro-4-methyl-8-{2-{(1-oxido-5-quinolinyl)-oxy}ethyl}-6H-dipyrido[3,2-b:2′,3′-e][1,4]diazepin-6-one] | 5610 nM | 105 nM | 6.1 nM |  |  |  | 247 nM |  |  | 
8 | Cc1ccnc2c1NC(=O)c1cc(CCOc3ccnc4ccccc34)cnc1N2C1CC1 [compound 3, 11-(Cyclopropyl)-5,11-dihydro-4-methyl-8-{2-(4-quinolinyloxy)ethyl}-6H-dipyrido[3,2-b:2′,3′-e][1,4]diazepin-6-one] | 3240 nM | 79 nM | 16.5 nM | 45 nM | 124 nM | 47 nM | 612 nM | 73 nM | 1.3 nM | 56 nM
9 | Cc1ccnc2c1NC(=O)c1cc(CCOc3cc[n+]([O-])c4ccccc34)cnc1N2C1CC1 [compound 15] | > 10000 nM | 206 nM | 61 nM | 66 nM | 270 nM | 215 nM | 1520 nM | 226 nM |  | 93 nM
10 | CN1C(=O)c2cc(CCOc3ccnc4ccccc34)cnc2N(C2CC2)c2nc(Cl)ccc21 [compound 6, 2-Chloro-11-cyclopropyl-5,11-dihydro-5-methyl-8-{2-(4-quinolinyloxy)-ethyl}-6H-dipyrido[3,2-b:2′,3′-e][1,4]diazepin-6-one] |  |  | 25 nM |  |  |  |  |  |  | 
11 | CCN1c2ncc(CCOc3ccnc4ccccc34)cc2C(=O)Nc2c(C)ccnc21 [compound 8, 5,11-Dihydro-11-ethyl-4-methyl-8-{2-(4-quinolinyloxy)ethyl}-6H-dipyrido[3,2-b:2′,3′-e][1,4]diazepin-6-one] | 7510 nM | 190 nM | 10 nM | 37 nM | 135 nM | 63 nM | 301 nM | 43 nM | 0.93 nM | 67 nM
12 | CCN1c2ncc(CCOc3ccnc4ccccc34)cc2C(=O)Nc2c(C)cc(Cl)nc21 [compound 1, 2-Chloro-5,11-dihydro-11-ethyl-4-methyl-8-{2-(4-quinolinyloxy)ethyl}-6H-dipyrido[3,2-b:2′,3′-e][1,4]diazepin-6-one] | 2740 nM | 132 nM | 10.5 nM | 19 nM | 28.5 nM | 29 nM | 52 nM | 20 nM | 2.6 nM | 31.2 nM
